Data set [1] deals with SREBP-1. Nature of the data set: SREBP-1 proteolysis (maturation) assay, Western immunoblot of nuclear fractions, HH-25 hepatocytes. Format: cell-based, human. Conditions: for induction of SREBP-1 maturation (increase in mature SREBP-1), in words: HH-25 hepatocytes, sterol independent. The procedure: FIGS. 2A-2C illustrate effects of TNF-α sphingomyelinase and C2-ceramide on the kinetics of SREBP-1 maturation—FIGS. 2A-2C is explained in more detail as follows: Cells were maintained in media supplemented with 1 μg/ml 25-hydroxy cholesterol and 15 μg/ml cholesterol for 24 hours before the experiment. The cells were treated for the indicated time as described in materials and methods. The cells were then harvested in PBS, pelleted and frozen. Lysis and nuclear fractionation were performed as described. Nuclear fractions (50 μg of protein) were electrophoresed on a 7.5% polyacrylamide gel and transferred to a PVDF membrane. Western blotting was performed as described. Band intensity was quantified via densitometry. Error bars represent ±one standard deviation from the mean. 2A) The kinetics of SREBP maturation as measured by the increase in mature SREBP-1 are plotted. Fold increase was calculated by comparing each time point to the corresponding control value (TNF-α is represented by stippled bars, bacterial sphingomyelinase is represented by light gray bars and C2-ceramide by the dark bars.) 2B) Cells were treated with TNF-α (10 ng/ml) and prepared as described above. The bands corresponding to the precursor and mature forms of SREBP-1 were quantified and their ratio plotted. 2C) Representative Western blots from which numerical data was derived. Incubation time is indicated above and applies to all conditions. The membranes were exposed to film for 15 seconds. P and M denote the precursor and mature forms of SREBP-1 respectively.
FIGS. 3A-3C show effects of TNF-α, sphingomyelinase and C2-ceramide concentration on SREBP-1 maturation—The FIGS. 3A-3C are explained in more detail as follows. […] Nuclear pellets were prepared and electrophoresed (50 μg of protein). The bands corresponding to the precursor and mature forms of SREBP-1 were quantified. The precursor to mature ratios were normalized to a single control to facilitate comparison. The control ratio was arbitrarily assigned a value of 1. A Unit of sphingomyelinase activity hydrolyzes 1.0 μmol of sphingomyelin per minute at 37° C. FIG. 3A (ng/ml TNF-α); FIG. 3B (mUnits of sphingomyelinase); FIG. 3C (micromolar C2-ceramide).
HH-25 cells were grown in alpha-minimal essential media supplemented with 100 units/ml penicillin, 100 µg/ml streptomycin, […], 0.1 μM selenium, 5.5 μg/ml transferrin, 0.5 μg/ml linoleic acid and 10% fetal bovine serum (media A). The cells were incubated in serum free F10 media for 30 to 60 minutes prior to initiating treatment with TNF-α, C2-ceramide or sphingomyelinase.
Following treatment, the cells were washed with 5 ml of PBS and pelleted at 1500×g for 10 minutes at 4° C. The pellet was stored at −70° C. and lysed in 0.5 ml buffer A (10 mM HEPES pH 7.4, 5 mM EDTA, 0.25 mM EGTA, 50 mM NaF, 7 mM β-mercaptoethanol, 0.35M sucrose, 0.1% NP-40 and protease inhibitors 1 mM PMSF, 2 μg/ml aprotinin, 10 μg/ml leupeptin and 5 μg/ml pepstatin). The lysate was centrifuged at 12,000×g for 15 minutes at 4° C. to prepare a nuclear fraction. The protein concentration of these samples was determined by the method of Lowry et al. al. (19).
50 μg of nuclear protein was separated by gel electrophoresis on a 7.5% polyacrylamide gel. Gels were calibrated by high range molecular weight markers (Bio-Rad product #161-0303, New York, N.Y.) which were transferred to a polyvinyl difluoride (PVDF) membrane and visualized with coomassie staining. Rabbit polyclonal antibodies against SREBP-1 were used at 0.5 μg/ml according to the instructions of the manufacturer. The antibody was visualized with horseradish peroxidase conjugated anti-rabbit IgG made in donkey (Amersham) using the Enhanced Chemiluminescence (ECL) Western Blotting Detection System Kit (Amersham). PVDF membranes were exposed to Hyperfilm ECL (Amersham) for the indicated time. Immunoblots were quantified via densitometry performed on a PDI densitometer scanner (model 20J7) coupled to a SPARC IRC workstation.

Data set [2] relates to SREBP-1. Nature of the data set: Indirect immunofluorescence of SREBP-1 subcellular localization. Format: cell-based, human. To be noted: 30 minutes after initiating treatment; TNF-α 10 ng/ml, sphingomyelinase 100 mUnits, C2-ceramide 10 μM. The protocol: FIGS. 5A-5D show indirect immunofluorescence of SREBP-1. FIGS. 5A-5D are discussed in more detail as follows. SREBP-1 was visualized with rabbit polyclonal antibodies directed towards the N-terminal DNA binding domain which is common to both the precursor and mature forms. Cells were maintained in media supplemented with 1 μg/ml 25-hydroxycholesterol and 15 μg/ml cholesterol for 24 hours before the experiment. Immunofluorescence was performed as described. All magnifications are 40× and all photographs were taken of samples that were fixed 30 minutes after initiating treatment. FIG. 5A) Control cells, FIG. 5B) Cells treated with TNF-α (10 ng/ml), FIG. 5C) Cells treated with sphingomyelinase (100 mUnits), FIG. 5D) Cells treated with C2-ceramide (10 μM).
Cultured HH-25 cells were grown on coverslips and treated as described. After treatment, the cells were washed 3×5 minutes with PBS containing 1 mM MgCl2 and 0.1 mM CaCl2 (solution A). The cells were fixed with 3% paraformaldehyde in solution A for 10 minutes and permeabilized with 0.5% Triton X-100 in solution A for 6 minutes at room temperature. The coverslips were then washed 3×5 minutes with solution A.
Primary antibody (anti-SREBP1) was used at a dilution of […] in PBS and applied for 1 hour with gentle shaking. The cells were washed as above and a FITC conjugated anti-rabbit IgG secondary antibody, was applied for ½ hour according to the instructions of the manufacturer. The coverslips were washed, mounted on microscope slides and were viewed and photographed at the indicated magnification on a Zeiss Axiovert 25 fluorescence microscope.

Data set [3] has as its system SREBP-1. The experiment in a line: Electrophoretic mobility shift assay, SREBP-1 binding to SRE probe. Format: cell-based, human. To be noted: TNF-α 10 ng/ml, sphingomyelinase 100 mUnits, C2-ceramide 10 μM. The protocol: FIGS. 6A-6D show electrophoretic mobility shift assays. FIGS. 6A-D are explained in more detail as follows. Cells were maintained in sterol supplemented media. Nuclear pellets were prepared and assayed as described in materials and methods. Probe that has been bound by mature SREBP-1 is indicated as “Bound”. Unbound probe is indicated as “Free”. The kinetics (in minutes) of SREBP-1 binding to the probe in response to treatment with (FIG. 6A). TNF-α (10 ng/ml), (FIG. 6B) sphingomyelinase (100 mUnits) and (FIG. 6C) C2-ceramide ([…]). (FIG. 6D). The cells were treated with either TNF-α (10 ng/ml), sphingomyelinase (100 mUnits) or C2-ceramide (10 μM) for 15 minutes. Supershift assays were then performed with antibodies raised against the DNA binding domain of SREBP-1. The presence or absence of antibody is indicated by (+) and (−) respectively. Pre-immune IgG was used as a control.
Gel mobility shift assays were performed as follows. Each 20 μl reaction mixture contained 8-10 μg of nuclear protein plus a α-[^32P]-labeled 25-base pair oligonucleotide probe containing the SREBP-binding site (14) in binding buffer (10 mM Hepes, pH 7.5, 0.5 mM spermidine, 0.15 mM EDTA, 10 mM dithiothreitol, 0.35 mM sucrose). The reaction mixture was incubated at room temperature for 15 min and loaded directly onto a 6.5% polyacrylamide (49:0.6 acrylamide/bisacrylamide) gel in a buffer of 25 mM Tris borate (pH 8.0), 0.25 mM EDTA. In some experiments, antisera specific for SREBP or preimmune sera were added to reaction mixtures to determine the composition of protein-probe complexes. For these “supershift” assays, extracts were incubated with 1 μl of preimmune sera or an equal volume of anti-SREBP antisera at 4° C. for 30 min prior to addition of α-[^32P]-labeled probe. In all experiments, proteins were separated by electrophoresis at 200 V for 2 h at room temperature. Gels were dried and exposed to Kodak XAR film with intensifying screens. Assays were repeated with nuclear extracts obtained from three unique experiments and evaluated by phosphoimage analysis to ensure reproducibility of results.

Method for HH-25 cells: Cells were treated with either TNF-α, sphingomyelinase or C2-ceramide for 1 hour at concentrations identical to those used in the SREBP-1 maturation studies. The cells were then washed twice with minimal essential medium and refed with media A for 6 hours. […] Genomic DNA was electrophoresed and stained with ethidium bromide.

Take `CCCCCCCCCCCCCCC[C@@H](O)[C@H](CO)NC(C)=O` [C2-dihydroceramide, reference compound]: in the data set with SREBP-1 [1], the “induction of SREBP-1 maturation (increase in mature SREBP-1), in words” value was “could not be induced”.

In the case of PDGF, the “induction of SREBP-1 maturation (increase in mature SREBP-1), in words” value in the data set with SREBP-1 [1] was “could not be recapitulated”.

Turning to Sphingomyelinase, the “decrease in the precursor to mature ratio” value in the data set on SREBP-1 [1] (250 milliunits of sphingomyelinase activity) is listed as 80%. The “increase in mass of the mature form of SREBP-1” value in the data set on SREBP-1 [1] (after 15 minutes of treatment, sterol supplemented media) is reported as 2.5 fold. Further, the “persistence of the increase in mature SREBP-1” value with SREBP-1 [1] (after 60 minutes) is given as “persisted after 60 minutes”. Further, the “subcellular localization of SREBP-1 (staining pattern)” value in the data set with SREBP-1 [2] is “intense nuclear staining and little extra-nuclear staining”. Further, the “amount of probe bound (electrophoretically retarded) by mature SREBP-1” value in the data set with SREBP-1 [3] is “increases”. Further, the “induction of apoptosis (160 bp DNA ladder)” value in the data set with HH-25 cells is given as “did not induce apoptosis”.

Source of the values: patent US6713057B1, “Compositions and methods for modulating serum cholesterol” (The Johns Hopkins University, priority 1999, dated 2004).
